From PubChem BioAssay AID248 (DTP/NCI, 2004)
“And” between values parts separate entries of the source, which are not always exact repeats. Identical values can stand only once. Inconclusive results and toxic doses are left out. Cut-off read from the data, not from the text of the source: active = T/C of 150% or more; inactive = T/C below 125%.

Tested on: L1210 leukemia ip in BDF1 mice, survival T/C
Experiment: NCI In Vivo Anticancer Drug Screen. Data for tumor model L1210 Leukemia (intraperitoneal) in B6D2F1 (BDF1) mice
Conditions: endpoint: mean survival time, higher = longer survival
How it was run: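 Read-out is survival time, reported as the treated-group measurement over the vehicle-control measurement.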

[1] = dose: 100.0 mg/kg/injection, schedule: Q04DX003 (ip), vehicle: other
[2] = dose: 200.0 mg/kg/injection, schedule: Q04DX003 (ip), vehicle: other
[3] = dose: 100.0 mg/kg/injection, schedule: Q01DX009 (ip), vehicle: Klucel (hydroxypropylcellulose) (HPC)
[4] = dose: 200.0 mg/kg/injection, schedule: Q01DX009 (ip), vehicle: Klucel (hydroxypropylcellulose) (HPC)
[5] = dose: 400.0 mg/kg/injection, schedule: Q01DX009 (ip), vehicle: Klucel (hydroxypropylcellulose) (HPC)
[6] = dose: 100.0 mg/kg/injection, schedule: Q04DX003 (ip), vehicle: Klucel (hydroxypropylcellulose) (HPC)
[7] = dose: 200.0 mg/kg/injection, schedule: Q04DX003 (ip), vehicle: Klucel (hydroxypropylcellulose) (HPC)
[8] = dose: 100.0 mg/kg/injection, schedule: Q01DX001 (ip), vehicle: carboxymethylcellulose (CMC)
[9] = dose: 200.0 mg/kg/injection, schedule: Q01DX001 (ip), vehicle: carboxymethylcellulose (CMC)
[10] = dose: 400.0 mg/kg/injection, schedule: Q01DX001 (ip), vehicle: carboxymethylcellulose (CMC)
[11] = dose: 400.0 mg/kg/injection, schedule: Q04DX003 (ip), vehicle: Klucel (hydroxypropylcellulose) (HPC)
[12] = dose: 50.0 mg/kg/injection, schedule: Q01DX009 (ip), vehicle: Klucel (hydroxypropylcellulose) (HPC)
[13] = dose: 100.0 mg/kg/injection, schedule: Q04DX003 (ip), vehicle: water
[14] = dose: 200.0 mg/kg/injection, schedule: Q04DX003 (ip), vehicle: water
[15] = dose: 100.0 mg/kg/injection, schedule: Q01DX001 (ip), vehicle: saline
[16] = dose: 200.0 mg/kg/injection, schedule: Q01DX001 (ip), vehicle: saline
[17] = dose: 400.0 mg/kg/injection, schedule: Q01DX001 (ip), vehicle: saline
[18] = dose: 100.0 mg/kg/injection, schedule: Q01DX009 (ip), vehicle: saline with Tween-80
[19] = dose: 200.0 mg/kg/injection, schedule: Q01DX009 (ip), vehicle: saline with Tween-80
[20] = dose: 100.0 mg/kg/injection, schedule: Q04DX003 (ip), vehicle: saline with Tween-80
[21] = dose: 200.0 mg/kg/injection, schedule: Q04DX003 (ip), vehicle: saline with Tween-80
[22] = dose: 400.0 mg/kg/injection, schedule: Q01DX009 (ip), vehicle: saline with Tween-80
[23] = dose: 400.0 mg/kg/injection, schedule: Q04DX003 (ip), vehicle: saline with Tween-80

Measured: T/C

COc1cc2c(cc1OC(C)=O)C(=O)CCC=C2
inactive: dose: 100.0 mg/kg/injection, schedule: Q01DX009 (ip), vehicle: saline 113 % of control | [1] 110 % of control | dose: 200.0 mg/kg/injection, schedule: Q01DX009 (ip), vehicle: saline 103 % of control | [2] 115 % of control | dose: 400.0 mg/kg/injection, schedule: Q01DX009 (ip), vehicle: saline 95 % of control | dose: 400.0 mg/kg/injection, schedule: Q04DX003 (ip), vehicle: other 103 % of control

Cc1cc(OC(=O)Nc2cccc(C(F)(F)F)c2)c(C)cc1Cl
inactive: [3] 106 % of control | [4] 118 % of control | [5] 102 % of control

CN(C)c1ccc(-c2nc3ccccc3s2)cc1
inactive: dose: 50.0 mg/kg/injection, schedule: Q04DX003 (ip), vehicle: Klucel (hydroxypropylcellulose) (HPC) 105 % of control | [6] 100 % of control | [7] 96 % of control

O=C(O)c1cc(I)c(OCc2ccccc2)c(I)c1
inactive: [8] 100 % of control | [9] 94 % of control | [10] 96 % of control

CCOC(=O)C(C)(C)OC(=O)Nc1ccccc1
inactive: [6] 98 % of control | [7] 91 % of control | [11] 98 % of control

CCN(CC)CC(=O)NCC(CCCCN1CCCCC1)(c1cccc2ccccc12)C(C)C (centres undefined)
inactive: dose: 12.5 mg/kg/injection, schedule: Q04DX003 (ip), vehicle: saline 104 % of control | dose: 25.0 mg/kg/injection, schedule: Q04DX003 (ip), vehicle: saline 102 % of control | dose: 50.0 mg/kg/injection, schedule: Q04DX003 (ip), vehicle: saline 102 % of control

CC(=O)c1cc2ccccc2o1
inactive: dose: 6.25 mg/kg/injection, schedule: Q04DX003 (ip), vehicle: water 103 % of control | dose: 12.5 mg/kg/injection, schedule: Q04DX003 (ip), vehicle: water 109 % of control | [12] 92 % of control | dose: 50.0 mg/kg/injection, schedule: Q04DX003 (ip), vehicle: water 108 % of control | [3] 90 % of control | [13] 112 % of control | [4] 95 % of control | [14] 123 % of control

Fc1ccc(-n2ncc3c2-c2ccccc2CCC3)cc1
inactive: [15] 108 % of control | [16] 104 % of control | [17] 108 % of control

NC(=S)N/N=C/c1nc2ccccc2[nH]c1=O
inactive: dose: 26.0 mg/kg/injection, schedule: Q03HX032 (ip), vehicle: saline with Tween-80 90 % of control and 91 % of control | dose: 40.0 mg/kg/injection, schedule: Q03HX032 (ip), vehicle: saline with Tween-80 95 % of control and 87 % of control | dose: 60.0 mg/kg/injection, schedule: Q03HX032 (ip), vehicle: saline with Tween-80 88 % of control and 90 % of control | dose: 90.0 mg/kg/injection, schedule: Q03HX032 (ip), vehicle: saline with Tween-80 94 % of control and 89 % of control | dose: 135.0 mg/kg/injection, schedule: Q03HX032 (ip), vehicle: saline with Tween-80 89 % of control

Cc1cc(C(=O)O)c(CN)c(=O)n1C
inactive: [13] 102 % of control | [14] 103 % of control | dose: 400.0 mg/kg/injection, schedule: Q04DX003 (ip), vehicle: water 102 % of control

CN(C)c1ccc(/C=N/NC(=O)CNC(=O)c2ccc(Cl)c(Cl)c2)cc1
inactive: dose: 50.0 mg/kg/injection, schedule: Q01DX009 (ip), vehicle: saline with Tween-80 86 % of control | [18] 94 % of control | [19] 88 % of control

Cc1ccc(NCc2ccccc2)cc1
inactive: [1] 112 % of control | [2] 92 % of control

Cc1c([N+](=O)[O-])cc(C(C)(C)C)c(O)c1[N+](=O)[O-]
inactive: dose: 6.25 mg/kg/injection, schedule: Q01DX009 (ip), vehicle: saline with Tween-80 95 % of control | dose: 12.5 mg/kg/injection, schedule: Q01DX009 (ip), vehicle: saline with Tween-80 91 % of control | dose: 12.5 mg/kg/injection, schedule: Q04DX002 (ip), vehicle: Klucel (hydroxypropylcellulose) (HPC) 110 % of control | dose: 25.0 mg/kg/injection, schedule: Q04DX002 (ip), vehicle: Klucel (hydroxypropylcellulose) (HPC) 112 % of control | dose: 25.0 mg/kg/injection, schedule: Q04DX002 (ip), vehicle: saline with Tween-80 89 % of control

COc1ccc(N2C(=O)CCC2=O)cc1
inactive: [18] 107 % of control | [20] 106 % of control | [19] 95 % of control | [21] 92 % of control | [22] 98 % of control | [23] 111 % of control

Cc1ccc(Cl)c(NC(=O)COc2ccc(Cl)cc2)c1
inactive: [3] 93 % of control | [4] 94 % of control | [5] 94 % of control

O=C1CCCNc2ccccc21
inactive: [18] 98 % of control | [6] 93 % of control | [19] 110 % of control | [7] 106 % of control | [22] 93 % of control | [11] 98 % of control

CC(CC(=O)c1ccc2ccccc2c1)C(=O)O (centres undefined)
inactive: dose: 75.0 mg/kg/injection, schedule: Q04DX003 (ip), vehicle: Klucel (hydroxypropylcellulose) (HPC) 97 % of control | dose: 150.0 mg/kg/injection, schedule: Q04DX003 (ip), vehicle: Klucel (hydroxypropylcellulose) (HPC) 92 % of control | dose: 300.0 mg/kg/injection, schedule: Q04DX003 (ip), vehicle: Klucel (hydroxypropylcellulose) (HPC) 107 % of control

Cc1nc(Cl)cc(Cl)n1
inactive: [6] 90 % of control | [7] 90 % of control | [11] 97 % of control

O=c1[nH]c(C(F)(F)F)nc2c1nc1n2CCC1
inactive: [18] 103 % of control | [20] 91 % of control | [19] 102 % of control | [21] 96 % of control | [22] 97 % of control | [23] 86 % of control

NS(=O)(=O)c1ccc(N=Nc2ncc(CCNC3=CC(=O)C(=O)c4ccccc43)[nH]2)cc1
inactive: dose: 12.5 mg/kg/injection, schedule: Q01DX009 (ip), vehicle: Klucel (hydroxypropylcellulose) (HPC) 93 % of control | dose: 25.0 mg/kg/injection, schedule: Q01DX009 (ip), vehicle: Klucel (hydroxypropylcellulose) (HPC) 96 % of control | [12] 96 % of control and 92 % of control

COc1ccc(S(=O)(=O)O)cc1NC(=O)CC(=O)c1cccc([N+](=O)[O-])c1
inactive: [15] 97 % of control | [16] 95 % of control | [17] 100 % of control

Oc1ccc(Nc2ccnc3cc(Cl)ccc23)cc1CN(CCCl)CCCl
inactive: dose: 5.0 mg/kg/injection, schedule: Q01DX001 (ip), vehicle: saline 109 % of control | dose: 10.0 mg/kg/injection, schedule: Q01DX001 (ip), vehicle: saline 109 % of control

COc1ccc(CCOC(C)=O)cc1
inactive: dose: 100.0 mg/kg/injection, schedule: Q04DX002 (ip), vehicle: saline 97 % of control | dose: 200.0 mg/kg/injection, schedule: Q04DX002 (ip), vehicle: saline 102 % of control | dose: 400.0 mg/kg/injection, schedule: Q04DX002 (ip), vehicle: saline 102 % of control

CC1CCC2C(CCC3CCCCC32)C1 (centres undefined)
inactive: [15] 107 % of control | [16] 107 % of control

COC(=O)C(CSCc1ccccc1)NC(=O)OCc1ccccc1 (centres undefined)
inactive: [3] 96 % of control | [6] 90 % of control | [4] 94 % of control | [7] 87 % of control | [5] 94 % of control

CC(=O)Nc1ccn(CC(=O)c2ccco2)c(=O)n1
inactive: [18] 102 % of control | [20] 98 % of control | [19] 102 % of control | [21] 90 % of control | [22] 104 % of control | [23] 93 % of control

Nc1[nH]c(=S)[nH]c(=O)c1N=Nc1c(Br)cc(S(N)(=O)=O)cc1Br
inactive: [8] 94 % of control | [9] 100 % of control | [10] 103 % of control
